From ChEMBL document CHEMBL4130460, “Anti-inflammatory Activity of Eudesmane-Type Sesquiterpenoids from Salvia plebeia” (J Nat Prod, 2017) come the findings set out here.

Calls of active or inactive are those of the source. The calls are words filed in the database; no cut-off is given here. Where only a bound is given, the exact number is not on record here.

For series [1], the system named is RAW264.7. As to the kind of experiment: Cytotoxicity against mouse RAW264.7 cells assessed as reduction in cell viability at 50 uM after 24 hrs by MTT assay. As to conditions: raw264.7, 24 h. The series is classed as cell-based. (Formazan colour is commonly taken as a measure of viable cells.)
In series [2] the test system is RAW264.7. Briefly: Anti-inflammatory activity in mouse RAW264.7 cells assessed as reduction in LPS-induced NO production preincubated for 30 mins followed by LPS stimulation measured after 24 hrs by Griess assay. Type of series: functional, cell-based.
In series [3] the test system is RAW264.7. Briefly: Inhibition of NF-kappaB in LPS-induced mouse RAW264.7 cells assessed as reduction in TNFalpha mRNA levels at 5 to 25 uM preincubated for 1 hr followed by LPS stimulation measured after 24 hrs by RT-PCR analysis. Type of series: cell-based.
The subject of series [4] is RAW264.7. As to the kind of experiment: Inhibition of NF-kappaB in LPS-induced mouse RAW264.7 cells assessed as reduction in iNOS protein expression levels at 5 to 25 uM preincubated for 1 hr followed by LPS stimulation measured after 24 hrs by Western blot analysis. Type of series: cell-based. In general terms: In western blotting, separated proteins are transferred to a membrane and probed.

The target in series [5] is Transcription factor p65 (Mus musculus) (UniProt Q04207). As to the kind of experiment: Inhibition of NF-kappaB p65 phosphorylation in nucleus of LPS-stimulated mouse RAW264.7 cells at 5 to 25 uM preincubated for 1 hr followed by LPS stimulation for 90 mins by Western blot method. The series is classed as cell-based.
Sequence of Transcription factor p65 (Mus musculus) (Q04207 whole entry): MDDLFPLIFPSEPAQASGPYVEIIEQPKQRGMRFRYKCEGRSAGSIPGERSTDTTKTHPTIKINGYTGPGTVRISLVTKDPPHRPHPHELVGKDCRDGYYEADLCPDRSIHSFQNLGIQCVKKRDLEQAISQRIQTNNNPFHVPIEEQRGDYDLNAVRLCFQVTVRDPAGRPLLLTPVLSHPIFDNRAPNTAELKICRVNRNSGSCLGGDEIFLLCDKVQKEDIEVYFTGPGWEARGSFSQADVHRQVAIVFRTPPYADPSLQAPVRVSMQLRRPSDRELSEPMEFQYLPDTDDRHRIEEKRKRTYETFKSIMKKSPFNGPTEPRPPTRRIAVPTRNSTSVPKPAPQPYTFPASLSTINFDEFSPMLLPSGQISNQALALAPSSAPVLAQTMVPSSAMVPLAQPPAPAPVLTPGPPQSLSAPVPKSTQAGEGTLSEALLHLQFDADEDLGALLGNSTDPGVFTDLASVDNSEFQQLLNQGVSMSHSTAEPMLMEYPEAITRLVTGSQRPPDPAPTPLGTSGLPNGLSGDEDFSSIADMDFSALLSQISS
Series [6] concerns RAW264.7. As to the kind of experiment: Inhibition of NF-kappaB in LPS-induced mouse RAW264.7 cells assessed as reduction in COX2 protein expression levels at 5 to 25 uM preincubated for 1 hr followed by LPS stimulation measured after 24 hrs by Western blot analysis. Type of series: cell-based.
The target in series [7] is Transcription factor p65 (Mus musculus) (UniProt Q04207). As to the kind of experiment: Inhibition of NF-kappaB p65 phosphorylation in cytosol of LPS-stimulated mouse RAW264.7 cells at 5 to 25 uM preincubated for 1 hr followed by LPS stimulation for 90 mins by Western blot method. Type of series: cell-based.
For series [8], the system named is RAW264.7. As to the kind of experiment: Inhibition of ERK phosphorylation in LPS-stimulated mouse RAW264.7 cells at 5 to 25 uM preincubated for 1 hr followed by LPS stimulation for 30 mins by Western blot method. The series is classed as cell-based.
Series [9] has as its target T1, NF-kappa-B inhibitor alpha (Mus musculus) (UniProt Q9Z1E3).
T1 sequence (whole entry): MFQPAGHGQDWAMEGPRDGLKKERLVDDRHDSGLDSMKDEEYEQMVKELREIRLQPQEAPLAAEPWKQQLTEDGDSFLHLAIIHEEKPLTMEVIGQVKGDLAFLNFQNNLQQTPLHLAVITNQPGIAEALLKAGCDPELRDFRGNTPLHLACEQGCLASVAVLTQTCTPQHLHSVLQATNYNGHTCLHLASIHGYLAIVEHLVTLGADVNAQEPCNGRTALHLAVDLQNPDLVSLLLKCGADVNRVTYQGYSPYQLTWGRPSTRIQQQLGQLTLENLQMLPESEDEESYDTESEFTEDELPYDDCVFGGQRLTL
Briefly: Inhibition of IkappaBalpha phosphorylation in nucleus of LPS-stimulated mouse RAW264.7 cells at 5 to 25 uM preincubated for 1 hr followed by LPS stimulation for 90 mins by Western blot method. Type of series: cell-based.

Series [10] concerns RAW264.7. Briefly: Inhibition of NF-kappaB in LPS-induced mouse RAW264.7 cells assessed as reduction in iNOS mRNA levels preincubated for 1 hr followed by LPS stimulation measured after 24 hrs by RT-PCR analysis. The series is classed as cell-based.
In series [11] the target is MAP kinase p38 (Mus musculus) (UniProt P47811+O08911+Q9WUI1+Q9Z1B7). As to the kind of experiment: Inhibition of MAPK p38 phosphorylation in LPS-stimulated mouse RAW264.7 cells at 5 to 25 uM preincubated for 1 hr followed by LPS stimulation for 30 mins by Western blot method. The series is classed as cell-based.
Series [12] deals with T1, NF-kappa-B inhibitor alpha (Mus musculus). As to the kind of experiment: Inhibition of IkappaBalpha phosphorylation in cytosol of LPS-stimulated mouse RAW264.7 cells at 5 to 25 uM preincubated for 1 hr followed by LPS stimulation for 90 mins by Western blot method. Type of series: cell-based.
In series [13] the test system is RAW264.7. As to the kind of experiment: Inhibition of NF-kappaB in LPS-induced mouse RAW264.7 cells assessed as reduction in IL-1beta mRNA levels preincubated for 1 hr followed by LPS stimulation measured after 24 hrs by RT-PCR analysis. Type of series: cell-based.
The test system of series [14] is RAW264.7. Briefly: Inhibition of JNK phosphorylation in LPS-stimulated mouse RAW264.7 cells at 5 to 25 uM preincubated for 1 hr followed by LPS stimulation for 30 mins by Western blot method. Type of series: cell-based.
For series [15], the system named is RAW264.7. Briefly: Inhibition of NF-kappaB in LPS-induced mouse RAW264.7 cells assessed as reduction in COX2 mRNA levels at 5 to 25 uM preincubated for 1 hr followed by LPS stimulation measured after 24 hrs by RT-PCR analysis. The series is classed as cell-based.
Series [16] has as its target T1, NF-kappa-B inhibitor alpha (Mus musculus). As to the kind of experiment: Inhibition of IkappaBalpha phosphorylation in nucleus of LPS-stimulated mouse RAW264.7 cells preincubated for 1 hr followed by LPS stimulation for 90 mins by Western blot method. Type of series: cell-based.
Series [17] has as its target Transcription factor p65 (Mus musculus) (UniProt Q04207). As to the kind of experiment: Inhibition of NF-kappaB p65 phosphorylation in nucleus of LPS-stimulated mouse RAW264.7 cells preincubated for 1 hr followed by LPS stimulation for 90 mins by Western blot method. Type of series: cell-based.
For series [18], the target named is T1, NF-kappa-B inhibitor alpha (Mus musculus). As to the kind of experiment: Inhibition of IkappaBalpha phosphorylation in cytosol of LPS-stimulated mouse RAW264.7 cells preincubated for 1 hr followed by LPS stimulation for 90 mins by Western blot method. The series is classed as cell-based.
Series [19] concerns the target Transcription factor p65 (Mus musculus) (UniProt Q04207). Briefly: Inhibition of NF-kappaB p65 phosphorylation in cytosol of LPS-stimulated mouse RAW264.7 cells preincubated for 1 hr followed by LPS stimulation for 90 mins by Western blot method. The series is classed as cell-based.

In general, IC50 refers to the concentration needed to halve the response being measured. Take `CC(=O)O[C@@H]1C(=O)C=C(C)[C@@H]2CC3=C(C)C(=O)O[C@@]3(O)C[C@@]12C`: the Activity entry in the series on RAW264.7 [1] is “Non-Toxic”. For the same molecule, in the series with RAW264.7 [2], the IC50 was greater than 100 µM.
The matching figures for `CC(=O)O[C@H]1C[C@@H](O)[C@@]2(C)C=C3OC(=O)C(C)=C3C[C@@H]2[C@H]1C`: “Non-Toxic” and 30 µM.
On to `CC1=C2C[C@H]3[C@](C)(C=C2OC1=O)[C@@H](O)CC[C@]3(C)O`, for which, in the series with RAW264.7 [1], the Activity result is listed as “Non-Toxic”. The IC50 with RAW264.7 [2] was greater than 100 µM.
With `CO[C@@]12C[C@]3(C)[C@H](O)C[C@H](O)[C@H](C)[C@H]3CC1=C(C)C(=O)O2`, the Activity entry in the series on RAW264.7 [1] was “Non-Toxic”. Besides, the IC50 in the series with RAW264.7 [2] is greater than 100 µM.
Turning to `CO[C@@]12C[C@]3(C)C=CC(=O)[C@H](C)[C@H]3CC1=C(C)C(=O)O2`, the inhibition result (in the series with RAW264.7 [3]; in series [5]; in the series with RAW264.7 [6]; in series [7]; in the series with RAW264.7 [8]; in series [9]) was “inactive” throughout. For the same molecule, the inhibition entry (in [11]; in series [12]; in the series on RAW264.7 [14]; with RAW264.7 [15]) was “inactive” each time. Moreover, the inhibition result with RAW264.7 [4] was “Active”. The inhibition result in the series on RAW264.7 [10] and in the series on RAW264.7 [13] was “Dose-dependent effect” throughout. For the same molecule, in the series on RAW264.7 [1], the Activity entry is given as “Non-Toxic”. Moreover, the IC50 in the series with RAW264.7 [2] amounted to 31.2 µM.
As for `CC(=O)O[C@H]1C[C@@H](O)[C@@]2(C)C[C@@]3(O)OC(=O)C(C)=C3[C@H](O)[C@@H]2[C@H]1C`, the Activity result in the series on RAW264.7 [1] is “Non-Toxic”. In the series on RAW264.7 [2], the IC50 is greater than 100 µM.
Taken in the same sequence, the figures for `CC1=C2CC3=C(C)[C@@H](O)C[C@@H](O)[C@@]3(C)C[C@@]2(O)OC1=O` were “Non-Toxic” and greater than 100 µM.
`CC1=C2C[C@@H]3[C@@](C)(C[C@]2(O)OC1=O)C(=O)C=C[C@@]3(C)O`: in the series with RAW264.7 [1], the Activity entry is “Non-Toxic”. Further, the IC50 in the series on RAW264.7 [2] was 57 µM.
The matching figures for `CO[C@]12C[C@@]3(C)[C@H](OC(C)=O)C(=O)C=C(C)[C@@H]3CC1=C(C)C(=O)O2`: “Non-Toxic” and greater than 100 µM.
Turning to `CC1=C2C[C@H]3[C@](C)(C=C2OC1=O)[C@H](O)CC[C@]3(C)O`, the Activity entry in the series on RAW264.7 [1] is “Non-Toxic”. In addition, the IC50 in the series on RAW264.7 [2] was greater than 100 µM.
Turning to `O=c1cc(-c2ccc(O)c(O)c2)oc2cc(O)cc(O)c12` [LUTEOLIN], in the series with RAW264.7 [2], the IC50 is 5.6 µM.
For `CC1=C2C[C@@H]3[C@@H](C)C(=O)C=C[C@@]3(C)C[C@@]2(O)OC1=O`, the Activity entry in the series with RAW264.7 [1] is “Non-Toxic”. Also, the IC50 in the series on RAW264.7 [2] was 68.9 µM.
The matching figures for `CC1=C2C[C@@H]3[C@@H](C)C(=O)C=C[C@@]3(C)C[C@H]2OC1=O`: “Non-Toxic” and 70.2 µM.
With `CO[C@@]12C[C@]3(C)[C@H](O)C[C@H](OC(C)=O)[C@H](C)[C@H]3CC1=C(C)C(=O)O2`, the Activity entry in the series with RAW264.7 [1] is “Non-Toxic”. In the series with RAW264.7 [2], the IC50 was found to be 19.9 µM.
For the molecule `CC1=C2C[C@@H]3[C@@H](C)[C@@H](O)C[C@@H](O)[C@@]3(C)C=C2OC1=O`, the Activity entry in the series with RAW264.7 [1] is “Non-Toxic”. In addition, the IC50 in the series with RAW264.7 [2] is greater than 100 µM.
The matching figures for `CC1=C2C[C@@H]3[C@@H](C)[C@@H](O)C[C@@H](O)[C@@]3(C)C[C@@]2(O)OC1=O`: “Non-Toxic” and greater than 100 µM.
Regarding `CO[C@]12C[C@]3(C)C=CC(=O)[C@H](C)[C@H]3CC1=C(C)C(=O)O2`, the inhibition entry (in series [16]; in series [17]; in the series with RAW264.7 [10]; in [18]; in the series with RAW264.7 [13]; in series [19]) was “Dose-dependent effect” in each case. Moreover, the inhibition entry (in the series with RAW264.7 [3]; with RAW264.7 [6]; with RAW264.7 [8]; in series [11]; with RAW264.7 [14]; in the series with RAW264.7 [15]) was “inactive” each time. Also, the inhibition result with RAW264.7 [4] was “Active”. In addition, in the series with RAW264.7 [1], the Activity result is reported as “Non-Toxic”. For the same molecule, the IC50 in the series with RAW264.7 [2] is 17.9 µM.
Turning to `CC(=O)O[C@H]1C[C@@H](O)[C@@]2(C)C[C@@]3(O)OC(=O)C(C)=C3C[C@@H]2[C@H]1C`, in the series on RAW264.7 [1], the Activity result is “Non-Toxic”. The IC50 with RAW264.7 [2] was greater than 100 µM.
As to `CC1=C[C@@H](O)[C@@H](O)[C@@]2(C)C[C@@]3(O)OC(=O)C(C)=C3C[C@H]12`, in the series with RAW264.7 [1], the Activity result is given as “Non-Toxic”. The IC50 in the series on RAW264.7 [2] was greater than 100 µM.
With `CC(=O)OC1=C[C@@](C)(O)[C@@H]2CC3=C(C)C(=O)O[C@@]3(O)C[C@@]2(C)C1=O`, the Activity entry with RAW264.7 [1] is given as “Non-Toxic”. The IC50 in the series with RAW264.7 [2] was greater than 100 µM.
As for `CC1=C2C[C@@H]3[C@](C)(O)[C@@H](O)C[C@@H](O)[C@@]3(C)C=C2OC1=O`, in the series on RAW264.7 [1], the Activity result was “Non-Toxic”. The IC50 with RAW264.7 [2] was greater than 100 µM.
